Laboratory results: ChEMBL document CHEMBL4177532, “Antibacterial Nerol Cinnamates from the Australian Plant Eremophila longifolia” (J Nat Prod, 2017)
Converted amounts (≈) assume the structure as drawn.

How the values were obtained:
[1] = Cytotoxicity against HEK293 cells assessed as reduction in cell viability incubated for 24 hrs by resazurin based assay; conditions: human
HepG2 = experiment: Cytotoxicity against human HepG2 cells assessed as reduction in cell viability incubated for 24 hrs by resazurin based assay; format: functional; conditions: HepG2, 24 h
Streptococcus pneumoniae = experiment: Antimicrobial activity against multidrug resistant Streptococcus pneumoniae ATCC 700677 by microdilution plate based method; format: functional
Staphylococcus aureus [2] = experiment: Antimicrobial activity against glycopeptide intermediate resistant Staphylococcus aureus NARSA NRS 17 by microdilution plate based method; format: functional
Enterococcus faecium = experiment: Antimicrobial activity against vancomycin-resistant and VanA expressing Enterococcus faecium ATCC 51559 by microdilution plate based method; format: functional
Staphylococcus aureus [3] = experiment: Antimicrobial activity against vancomycin-resistant Staphylococcus aureus NARSA VRS 1 by microdilution plate based method; format: functional
[4] = system: Trypanosoma brucei brucei; experiment: Antitrypanosomal activity against Trypanosoma brucei brucei GUTat 3.1 incubated for 72 hrs by alamar blue dye based assay; format: functional, organism-based; conditions: GUTat 3.1, 72 h
MRC5 = experiment: Cytotoxicity against human MRC5 cells; format: cell-based
Staphylococcus aureus [5] = experiment: microbe, parasite or virus in culture; format: functional; conditions: ATCC 43300
Escherichia coli [6] = experiment: Antimicrobial activity against Escherichia coli ATCC 25922 by microdilution plate based method; format: functional
Acinetobacter baumannii = experiment: Antimicrobial activity against Acinetobacter baumannii ATCC 19606 by microdilution plate based method; format: functional; conditions: ATCC 19606 = CIP 70.34 = JCM 6841
Staphylococcus aureus [7] = experiment: Antimicrobial activity against Staphylococcus aureus; format: functional
Escherichia coli [8] = experiment: Antimicrobial activity against Escherichia coli; format: functional
[9] = Drug metabolism assessed as compound auto-oxidation; format: physicochemical
Cryptococcus neoformans = experiment: Antimicrobial activity against Cryptococcus neoformans ATCC 208821 by microdilution plate based method; format: functional
Candida albicans = experiment: Antimicrobial activity against Candida albicans ATCC 90028 by microdilution plate based method; format: functional

CN[C@H](CC(C)C)C(=O)N[C@H]1C(=O)N[C@@H](CC(N)=O)C(=O)N[C@H]2C(=O)N[C@H]3C(=O)N[C@H](C(=O)N[C@H](C(=O)O)c4cc(O)cc(O)c4-c4cc3ccc4O)[C@H](O)c3ccc(c(Cl)c3)Oc3cc2cc(c3O[C@@H]2O[C@H](CO)[C@@H](O)[C@H](O)[C@H]2O[C@H]2C[C@](C)(N)[C@H](O)[C@H](C)O2)Oc2ccc(cc2Cl)[C@H]1O.Cl [VANCOMYCIN HYDROCHLORIDE]
MIC (Streptococcus pneumoniae): 2 µg/mL | MIC (Staphylococcus aureus [2]): > 32 µg/mL | MIC (Enterococcus faecium): > 32 µg/mL | MIC (Staphylococcus aureus [3]): > 32 µg/mL

CC(C)=CCC/C(C)=C\CC/C(C)=C\COC(=O)/C=C/c1ccc(O)c(O)c1 [FARNESYL CAFFEATE]
IC50 [4]: 0.23 µg/mL (≈ 0.598 µM) | IC50 (MRC5): 13.3 µg/mL (≈ 34.6 µM)

CCCCCCCCCC(=O)N[C@@H](Cc1c[nH]c2ccccc12)C(=O)N[C@@H](CC(N)=O)C(=O)N[C@@H](CC(=O)O)C(=O)N[C@@H]1C(=O)NCC(=O)N[C@@H](CCCN)C(=O)N[C@@H](CC(=O)O)C(=O)N[C@H](C)C(=O)N[C@@H](CC(=O)O)C(=O)NCC(=O)N[C@H](CO)C(=O)N[C@@H]([C@H](C)CC(=O)O)C(=O)N[C@@H](CC(=O)c2ccccc2N)C(=O)O[C@@H]1C [DAPTOMYCIN]
MIC (Streptococcus pneumoniae): 8 µg/mL (≈ 4.94 µM) | MIC (Staphylococcus aureus [2]): 16 to 32 µg/mL (≈ 9.87 to 19.7 µM) | MIC (Enterococcus faecium): 32 µg/mL (≈ 19.7 µM) | MIC (Staphylococcus aureus [5]): 4 µg/mL (≈ 2.47 µM) | MIC (Staphylococcus aureus [3]): 8 µg/mL (≈ 4.94 µM)

CC[C@H](C)CCCCC(=O)N[C@@H](CCN)C(=O)N[C@H](C(=O)N[C@@H](CCN)C(=O)N[C@H]1CCNC(=O)[C@H]([C@@H](C)O)NC(=O)[C@H](CCN)NC(=O)[C@H](CCN)NC(=O)[C@H](CC(C)C)NC(=O)[C@@H](Cc2ccccc2)NC(=O)[C@H](CCN)NC1=O)[C@@H](C)O.O=S(=O)(O)O.O=S(=O)(O)O
MIC (Escherichia coli [6]): 0.3 µg/mL | MIC (Acinetobacter baumannii): 0.3 µg/mL

CC(C)=CCC/C(C)=C/COC(=O)/C=C/c1ccccc1
MIC (Staphylococcus aureus [7]): 5000 µg/mL (≈ 17600 µM) | MIC (Escherichia coli [8]): 5000 µg/mL (≈ 17600 µM)

CC(C)=CCC/C(C)=C\COC(=O)/C=C/c1ccc(O)cc1
MIC (Streptococcus pneumoniae): 64 µg/mL (≈ 213 µM) | MIC (Escherichia coli [6]): > 64 µg/mL | MIC (Staphylococcus aureus [2]): > 64 µg/mL | MIC (Enterococcus faecium): 8 µg/mL (≈ 26.6 µM) | MIC (Staphylococcus aureus [5]): > 64 µg/mL | MIC (Acinetobacter baumannii): > 64 µg/mL | Drug metabolism [9]: Metabolite_Detected | MIC (Cryptococcus neoformans): 32 to 64 µg/mL (≈ 107 to 213 µM) | MIC (Candida albicans): > 64 µg/mL | CC50 at 24 h [1]: 273 µM | MIC (Staphylococcus aureus [3]): > 64 µg/mL | CC50 (HepG2): 157 µM

OC(Cn1cncn1)(Cn1cncn1)c1ccc(F)cc1F [FLUCONAZOLE]
MIC (Cryptococcus neoformans): 8 µg/mL (≈ 26.1 µM) | MIC (Candida albicans): 0.3 to 0.5 µg/mL (≈ 0.98 to 1.63 µM)

COc1cc(/C=C/C(=O)OC/C=C(/C)CCC=C(C)C)ccc1O
MIC (Streptococcus pneumoniae): 8 to 16 µg/mL (≈ 24.2 to 48.4 µM) | MIC (Escherichia coli [6]): > 64 µg/mL | MIC (Staphylococcus aureus [2]): 16 µg/mL (≈ 48.4 µM) | MIC (Enterococcus faecium): 8 µg/mL (≈ 24.2 µM) | MIC (Staphylococcus aureus [5]): 16 µg/mL (≈ 48.4 µM) | MIC (Acinetobacter baumannii): > 64 µg/mL | Drug metabolism [9]: Metabolite_Detected | MIC (Cryptococcus neoformans): 32 to 64 µg/mL (≈ 96.8 to 194 µM) | MIC (Candida albicans): > 64 µg/mL | CC50 at 24 h [1]: 273 µM | MIC (Staphylococcus aureus [3]): 16 to 32 µg/mL (≈ 48.4 to 96.8 µM) | CC50 (HepG2): 300 µM
